Consider 13 compounds from patent US8940896B2, “Tetra-cyclic carboline derivatives useful in the inhibition of angiogenesis” (PTC Therapeutics, Inc., priority 2004, dated 2015).

For the experiment, the system named is VEGF. The experiment can be described thus: Hypoxia-inducible endogenous VEGF expression, VEGF ELISA assay. It counts as cell-based. The note with it: HeLa cells, hypoxic conditions (1% O2, 5% CO2), VEGF in conditioned media. The essentials:
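HeLa cells cultured 24-48 h under hypoxia (1% O2) with or without compound; VEGF in conditioned medium quantified by ELISA against a standard curve. EC50 from dose-response percent inhibition, with parallel CellTiter-Glo CC50 under identical conditions.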
A general note: ELISA stands for enzyme-linked immunosorbent assay.

In general, EC50 refers to the midpoint of the concentration-response curve. Lower therefore signals greater potency.

The structures appear in SMILES notation. A value given as a limit tells only on which side of the number the result lay.

As for `COc1ccc(C2c3[nH]c4ccc(Br)cc4c3CC3C(=O)N(c4cccc(C#N)c4)C(=S)N32)cc1` (stereo not shown) [Compound 146], the EC50 (Homo sapiens, HeLa) is below 8 nM.

Compound `O=C1C2Cc3c([nH]c4ccc(Br)cc34)C(c3ccc(OCCN4CCOCC4)cc3)N2C(=S)N1C1CCCCC1` (stereo not shown) [Compound 115] displayed an EC50 (Homo sapiens, HeLa) below 8 nM.

In the case of `COc1ccc(C2c3[nH]c4ccc(C)cc4c3CC3C(=O)N(C4CCCCC4)C(=S)N32)cc1` (stereo not shown) [Compound 23], where the note is “Homo sapiens, HeLa”, the EC50 lay in the range of 8 to 40 nM.

`COc1ccc(C2c3[nH]c4ccccc4c3CC3C(=O)N(C)C(=S)N32)c(OC)c1OC` (stereo not shown) [Compound 73] gave an EC50 (Homo sapiens, HeLa) above 1000 nM.

Compound `C=CCN1C(=O)C2Cc3c([nH]c4ccccc34)C(c3ccccc3OC)N2C1=S` (stereo not shown) [Compound 85] had an EC50 above 1000 nM.

On to `COc1cccc(C2c3[nH]c4ccc(Br)cc4c3CC3C(=O)N(C4CCCCC4)C(=S)N32)c1` (stereo not shown) [Compound 28], for which, where the note is “Homo sapiens, HeLa”, the EC50 lay within 8 to 40 nM.

With `CC(C)N1C(=O)C2Cc3c([nH]c4ccc(Br)cc34)C(c3ccc(N4CCOCC4)cc3)N2C1=S` (stereo not shown) [Compound 127], the EC50 (Homo sapiens, HeLa) is below 8 nM.

On to `O=C1C2Cc3c([nH]c4ccc(Br)cc34)C(c3ccc4c(c3)OCO4)N2C(=S)N1C1CC1` (stereo not shown) [Compound 18], for which the EC50 (Homo sapiens, HeLa) is below 8 nM.

Consider `COc1ccc(C2c3[nH]c4ccc(Br)cc4c3CC3C(=O)N(c4cccnc4)C(=S)N32)cc1` (stereo not shown) [Compound 99], for which, for the setting “Homo sapiens, HeLa”, the EC50 is below 8 nM.

The compound `COc1ccc(C2c3[nH]c4ccc(Br)cc4c3CC3C(=O)N(c4ccc(C(=O)O)cc4)C(=S)N32)cc1` (stereo not shown) [Compound 200] came in with an EC50 (Homo sapiens, HeLa) of 8 to 40 nM.

The compound `O=C1C2Cc3c([nH]c4ccc(Br)cc34)C(c3ccc(OCCN4CCOCC4)cc3)N2C(=S)N1CC1CCCO1` (stereo not shown) [Compound 106] gave an EC50 (Homo sapiens, HeLa) of 40 to 200 nM.

Regarding `COc1cc(C2c3[nH]c4ccccc4c3CC3C(=O)N(C)C(=S)N32)cc(OC)c1O` (stereo not shown) [Compound 71], the EC50 (Homo sapiens, HeLa) is above 1000 nM.

In the case of `COC(=O)c1ccc(N2C(=O)C3Cc4c([nH]c5ccc(Br)cc45)C(c4ccc(OC)cc4)N3C2=S)cc1` (stereo not shown) [Compound 139], the EC50 (Homo sapiens, HeLa) fell in the range of 8 to 40 nM.
